These results are taken from ChEMBL document CHEMBL1139070, “Synthesis and characterization of poly (amino ester) for slow biodegradable gene delivery vector” (Bioorg Med Chem, 2007).

A short description of series [1]: Cytotoxicity against HEPG2 cells assessed as cell viability at 200 ug/ml by MTT method. Particulars: human, read-out: Activity. It counts as cell-based.
Series [2] is described as follows: Cytotoxicity against C2C12 cells assessed as cell viability at 200 ug/ml by MTT method. Particulars: read-out: Activity. It counts as cell-based, Homo sapiens. On the technique in general: Formazan colour is commonly taken as a measure of viable cells.
Series [3] in a line: Cytotoxicity against HEPG2 cells assessed as cell viability at 200 ug/ml after 24 hrs by MTT method. It counts as cell-based. Particulars: human, read-out: Activity.
Series [4] can be described thus: Cytotoxicity against C2C12 cells assessed as cell viability at 200 ug/ml after 24 hrs by MTT method. The format is cell-based. Particulars: read-out: Activity.
The test system of another series is C2C12. The series can be described thus: Cytotoxicity against C2C12 cells assessed as cell viability upto 30 ug/ml after 24 hrs by MTT method. It counts as cell-based. Particulars: c2c12, 24 h.

As to `CCCCCC(=O)OCCN(CCOC(=O)CCN(CCC(=O)OC)CCN1CCC(=O)OCCCN2CCOC(=O)CCN(CCC(=O)OCCN(CCOC(=O)CCCCC)C(COC(=O)CCCCC)(COC(=O)CCCCC)COC(=O)CCN3CCC(=O)OCC2(CO)COC(=O)CCN(CCN(CCC(=O)OC)CCC(=O)OCC(COC(=O)CCCCC)(COC(=O)CCCCC)N(CCOC(=O)CCCCC)CCOC(=O)CCCCC)CCC(=O)OCCN(C(CO)(COC(=O)CCCCC)COC(=O)CCCCC)CCOC(=O)CCN(CCC(=O)OCC(COC(=O)CCCCC)(COC(=O)CCCCC)N(CCOC(=O)CCCCC)CCOC(=O)CCCCC)CC3)CCN(CCC(=O)OC)CC(=O)OCCN(CCOC(=O)CCCCC)C(CO)(COC(=O)CCCCC)COC(=O)CC1)C(CO)(COC(=O)CCCCC)COC(=O)CCCCC` (stereo not given), the viability at 200 ug/ml in series [1] stood at 82%; in series [2], 73%. The viability at 24 h, 200 ug/ml in series [3] stood at 87%; in series [4], 85%. Besides, the Activity entry in the series on C2C12 is recorded as “Non-toxic”.
